Patent US12209102B2, “Heterocyclic compounds and uses thereof” (Kumquat Biosciences Inc., priority 2022, dated 2025)

How the values were obtained:
[1] = test system: SW620 cells; assay: Ras cellular assay, growth of cells with K-Ras G12V mutation (CellTiter-Glo); format: cell-based; settings: Homo sapiens, SW-620; cell growth, Example 9, G12V mutation; read-out: IC50 against SW620 cells
How it was run: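 SW620 (K-Ras G12V) cells, e.g. 800/well in RPMI-1640 with 10% heat-inactivated FBS on standard or ultra-low attachment plates, were dosed the day after plating with e.g. a 10-point 3-fold series. Viability by CellTiter-Glo luminescence about 6 days later; IC50 from four-parameter fit.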

[2] = test system: A549 cells; assay: Ras cellular assay, growth of cells with K-Ras G12S mutation (CellTiter-Glo); format: cell-based; settings: Homo sapiens, cell growth, Example 9, G12S mutation, read-out: IC50 against A549 cells
Protocol: For example, this assay can be also used to assess a selective growth inhibition of a mutant Ras protein relative to a wildtype, or relative to a different mutant Ras protein.
A549 (ATCC CCL-185) and LS123 (ATCC CCL-255) cell lines comprise a G12S mutation and can be used to assess Ras cellular signaling in vitro, e.g., in response to the compounds herein. A549 culture medium is prepared with RPMI-1640 and 10% heat-inactivated FBS. LS123 culture medium is prepared with RPMI-1640 and 10% heat-inactivated FBS. A CellTiter-Glo (CTG) luminescent based assay (Promega) is used to assess growth of the cells, as a measurement of the ability of the compounds herein to inhibit Ras signaling in the cells. The cells (e.g., 800 per well) are seeded in their respective culture medium in standard tissue culture-treated 384-well format plates (Falcon #08-772-116) or ultra-low attachment surface 384-well format plates (S-Bio #MS-9384WZ). The day after plating, cells are treated with a dilution series (e.g., a 10 point 3-fold dilution series) of the compounds herein (e.g., approximately 40 μL final volume per well). Cell viability can be monitored (e.g., approximately 6 days later) according to the manufacturer's recommended instructions, where the CellTiter-Glo reagent is added (e.g., approximately 10 μL), vigorously mixed, covered, and placed on a plate shaker (e.g., approximately for 20 min) to ensure sufficient cell lysis prior to assessment of luminescent signal. The IC50 values are determined using the four parameter fit. The resulting IC50 value is a measurement of the ability of the compounds herein to reduce cell growth of Ras-driven cells (e.g., tumor cell lines) in vitro and/or in vivo.

[3] = target: T1, K-Ras G12D (Homo sapiens, UniProt P01116, G12D); assay: HTRF resonance energy transfer assay, K-Ras G12D / SOS1 interaction; format: biochemical; settings: HTRF assay of Example 5; read-out: IC50 against K-Ras G12D
T1 construct: made in house; host or cells: E. coli BL21 (DE3)
How it was run: (§1)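 Read-out: HTRF 665/620 nm ratio (excitation 337 nm) after roughly 10 min or longer incubation, used to derive IC50. Donor anti-GST-Eu on GST-K-Ras; acceptor anti-6His-XL665 on His-hSOS1. Duplicate dose series from 10 μM down to 0.01 μM.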

[4] = target: T2, K-Ras WT (Homo sapiens, UniProt P01116); assay: HTRF resonance energy transfer assay, K-Ras WT / SOS1 interaction; format: biochemical; settings: HTRF assay of Example 5; read-out: IC50 against K-Ras WT
T2 construct: made in house; host or cells: E. coli BL21 (DE3)
How it was run: as §1

[5] = target: T3, K-Ras G12S (Homo sapiens, UniProt P01116, G12S); assay: HTRF resonance energy transfer assay, K-Ras G12S / SOS1 interaction; format: biochemical; settings: HTRF assay of Example 5; read-out: IC50 against K-Ras G12S
T3 construct: made in house; host or cells: E. coli BL21 (DE3)
How it was run: as §1

[6] = target: T4, K-Ras G12V (Homo sapiens, UniProt P01116, G12V); assay: HTRF resonance energy transfer assay, K-Ras G12V / SOS1 interaction; format: biochemical; settings: HTRF assay of Example 5; read-out: IC50 against K-Ras G12V
T4 construct: made in house; host or cells: E. coli BL21 (DE3)
How it was run: as §1

T2 sequence (P01116 1-188 isoform P01116-2): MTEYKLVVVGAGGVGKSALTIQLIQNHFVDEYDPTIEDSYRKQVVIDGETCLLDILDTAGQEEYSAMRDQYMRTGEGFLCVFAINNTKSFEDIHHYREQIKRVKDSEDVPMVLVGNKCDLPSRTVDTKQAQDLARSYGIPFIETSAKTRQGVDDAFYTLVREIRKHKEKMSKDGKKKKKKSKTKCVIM
T1 sequence (P01116 1-188 isoform P01116-2 G12D): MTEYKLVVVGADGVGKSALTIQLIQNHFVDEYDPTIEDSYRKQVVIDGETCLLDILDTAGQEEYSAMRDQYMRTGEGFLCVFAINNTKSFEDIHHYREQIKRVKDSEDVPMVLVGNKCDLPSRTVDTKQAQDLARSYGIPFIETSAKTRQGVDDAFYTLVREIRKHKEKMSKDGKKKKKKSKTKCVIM
T3 sequence (P01116 1-188 isoform P01116-2 G12S): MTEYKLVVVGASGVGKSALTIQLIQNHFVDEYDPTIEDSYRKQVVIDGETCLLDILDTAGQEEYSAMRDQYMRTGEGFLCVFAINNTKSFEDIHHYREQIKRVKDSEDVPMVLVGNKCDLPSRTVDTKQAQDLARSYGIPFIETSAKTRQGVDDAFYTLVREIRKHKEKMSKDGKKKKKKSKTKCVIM
T4 sequence (P01116 1-188 isoform P01116-2 G12V): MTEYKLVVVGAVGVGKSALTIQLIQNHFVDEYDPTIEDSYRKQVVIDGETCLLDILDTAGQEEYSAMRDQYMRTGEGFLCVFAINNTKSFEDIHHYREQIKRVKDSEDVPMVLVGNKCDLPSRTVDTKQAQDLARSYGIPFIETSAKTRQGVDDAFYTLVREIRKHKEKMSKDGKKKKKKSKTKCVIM

SMILES | IC50 [1] [nM] | IC50 [2] [nM] | IC50 [3] [nM] | IC50 [4] [nM] | IC50 [5] [nM] | IC50 [6] [nM]
N#Cc1c(N)sc2c(F)ccc(-c3c(Cl)c4c5c(nc(OC[C@@]67CCCN6C[C@H](F)C7)nc5c3F)N(C3CCCOCC3)CCO4)c12 (stereo partly drawn) [Compound 638, 2-amino-4-(8-chloro-10-fluoro-2-(((2R,7aS)-2-fluorotetrahydro-1H-pyrrolizin-7a(5H)-yl)methoxy)-4-(oxepan-4-yl)-5,6-dihydro-4H-[1,4]oxazepino[5,6,7-de]quinazolin-9-yl)-7-fluorobenzo[b]thiophene-3-carbonitrile] | < 5000 | < 5000 | < 100 | < 100 | < 100 | < 100
N#Cc1c(N)sc2c(F)ccc(-c3c(Cl)c4c5c(nc(OC[C@@]67CCCN6C[C@H](F)C7)nc5c3F)N(C3CCCC3)CCO4)c12 [Compound 639, 2-amino-4-(8-chloro-4-cyclopentyl-10-fluoro-2-(((2R,7aS)-2-fluorotetrahydro-1H-pyrrolizin-7a(5H)-yl)methoxy)-5,6-dihydro-4H-[1,4]oxazepino[5,6,7-de]quinazolin-9-yl)-7-fluorobenzo[b]thiophene-3-carbonitrile] | < 5000 | < 5000 | < 100 | < 100 | < 100 | < 100
N#Cc1c(N)sc2c(F)ccc(-c3c(Cl)c4c5c(nc(OC[C@@]67CCCN6C[C@H](F)C7)nc5c3F)N(C3CCCN(C(=O)[C@@H]5N[C@H]5C5CC5)C3)CCO4)c12 (stereo partly drawn) [Compound 643, 2-amino-4-(8-chloro-4-(1-((2R,3S)-3-cyclopropylaziridine-2-carbonyl)piperidin-3-yl)-10-fluoro-2-(((2R,7aS)-2-fluorotetrahydro-1H-pyrrolizin-7a(5H)-yl)methoxy)-5,6-dihydro-4H-[1,4]oxazepino[5,6,7-de]quinazolin-9-yl)-7-fluorobenzo[b]thiophene-3-carbonitrile] | < 5000 | < 5000 | < 100 | < 100 | < 100 | < 100
CC(O)C1C(C)Oc2c(Cl)c(-c3ccc(F)c4sc(N)c(C#N)c34)c(F)c3nc(OC[C@@]45CCCN4C[C@H](F)C5)nc(c23)N1CC(F)F (stereo partly drawn) [Compound 646, 2-amino-4-(8-chloro-4-(2,2-difluoroethyl)-10-fluoro-2-(((2R,7aS)-2-fluorotetrahydro-1H-pyrrolizin-7a(5H)-yl)methoxy)-5-(1-hydroxyethyl)-6-methyl-5,6-dihydro-4H-[1,4]oxazepino[5,6,7-de]quinazolin-9-yl)-7-fluorobenzo[b]thiophene-3-carbonitrile] | < 5000 | < 5000 | < 100 | < 100 | < 100 | < 100
CC1Oc2c(Cl)c(-c3ccc(F)c4sc(N)c(C#N)c34)c(F)c3nc(OC[C@@]45CCCN4C[C@H](F)C5)nc(c23)N(CC(F)F)C1C(C)(C)O (stereo partly drawn) [Compound 655, 2-amino-4-(8-chloro-4-(2,2-difluoroethyl)-10-fluoro-2-(((2R,7aS)-2-fluorotetrahydro-1H-pyrrolizin-7a(5H)-yl)methoxy)-5-(2-hydroxypropan-2-yl)-6-methyl-5,6-dihydro-4H-[1,4]oxazepino[5,6,7-de]quinazolin-9-yl)-7-fluorobenzo[b]thiophene-3-carbonitrile] | < 5000 | < 5000 | < 100 | < 100 | < 100 | < 100
COC1CCCC1N1CCOc2c(Cl)c(-c3ccc(F)c4sc(N)c(C#N)c34)c(F)c3nc(OC[C@@]45CCCN4C[C@H](F)C5)nc1c23 (stereo partly drawn) [Compound 657, 2-amino-4-(8-chloro-10-fluoro-2-(((2R,7aS)-2-fluorotetrahydro-1H-pyrrolizin-7a(5H)-yl)methoxy)-4-(2-methoxycyclopentyl)-5,6-dihydro-4H-[1,4]oxazepino[5,6,7-de]quinazolin-9-yl)-7-fluorobenzo[b]thiophene-3-carbonitrile] | < 5000 | < 5000 | < 100 | < 100 | < 100 | < 100
CC(O)CC1COc2c(Cl)c(-c3ccc(F)c4sc(N)c(C#N)c34)c(F)c3nc(OC[C@@]45CCCN4C[C@H](F)C5)nc(c23)N1CC(F)F (stereo partly drawn) [Compound 659, 2-amino-4-(8-chloro-4-(2,2-difluoroethyl)-10-fluoro-2-(((2R,7aS)-2-fluorotetrahydro-1H-pyrrolizin-7a(5H)-yl)methoxy)-5-(2-hydroxypropyl)-5,6-dihydro-4H-[1,4]oxazepino[5,6,7-de]quinazolin-9-yl)-7-fluorobenzo[b]thiophene-3-carbonitrile] | < 5000 | < 5000 | < 100 | < 100 | < 100 | < 100
COC1CC(N2CCOc3c(Cl)c(-c4ccc(F)c5sc(N)c(C#N)c45)c(F)c4nc(OC[C@@]56CCCN5C[C@H](F)C6)nc2c34)C1 (stereo partly drawn) [Compound 660, 2-amino-4-(8-chloro-10-fluoro-2-(((2R,7aS)-2-fluorotetrahydro-1H-pyrrolizin-7a(5H)-yl)methoxy)-4-(3-methoxycyclobutyl)-5,6-dihydro-4H-[1,4]oxazepino[5,6,7-de]quinazolin-9-yl)-7-fluorobenzo[b]thiophene-3-carbonitrile] | < 5000 | < 5000 | < 100 | < 100 | < 100 | < 100
N#Cc1c(N)sc2c(F)ccc(-c3c(Cl)c4c5c(nc(OC[C@@]67CCCN6C[C@H](F)C7)nc5c3F)N(C3CCC(NC(=O)C(F)F)C3)CCO4)c12 (stereo partly drawn) [Compound 673, N-(3-(9-(2-amino-3-cyano-7-fluorobenzo[b]thiophen-4-yl)-8-chloro-10-fluoro-2-(((2R,7aS)-2-fluorotetrahydro-1H-pyrrolizin-7a(5H)-yl)methoxy)-5,6-dihydro-4H-[1,4]oxazepino[5,6,7-de]quinazolin-4-yl)cyclopentyl)-2,2-difluoroacetamide] | < 5000 | < 5000 | < 100 | < 100 | < 100 | < 100
N#Cc1c(N)sc2c(F)ccc(-c3c(Cl)c4c5c(nc(OC[C@@]67CCCN6C[C@H](F)C7)nc5c3F)N(C3CCC(C#N)C3)CCO4)c12 (stereo partly drawn) [Compound 684, 2-amino-4-(8-chloro-4-(3-cyanocyclopentyl)-10-fluoro-2-(((2R,7aS)-2-fluorotetrahydro-1H-pyrrolizin-7a(5H)-yl)methoxy)-5,6-dihydro-4H-[1,4]oxazepino[5,6,7-de]quinazolin-9-yl)-7-fluorobenzo[b]thiophene-3-carbonitrile] | < 5000 | < 5000 | < 100 | < 100 | < 100 | < 100
N#Cc1c(N)sc2c(F)ccc(-c3c(Cl)c4c5c(nc(OC[C@@]67CCCN6C[C@H](F)C7)nc5c3F)N(C3CCN(CC(F)F)C3)CCO4)c12 (stereo partly drawn) [Compound 693, 2-amino-4-(8-chloro-4-(1-(2,2-difluoroethyl)pyrrolidin-3-yl)-10-fluoro-2-(((2R,7aS)-2-fluorotetrahydro-1H-pyrrolizin-7a(5H)-yl)methoxy)-5,6-dihydro-4H-[1,4]oxazepino[5,6,7-de]quinazolin-9-yl)-7-fluorobenzo[b]thiophene-3-carbonitrile] | < 5000 | < 5000 | < 100 | < 100 | < 100 | < 100
